Measured values taken from patent US10111437B2, “Substituted guanidines as fungicides” (Nippon Soda Co., Ltd., priority 2015, dated 2018).

Tests used:
[1] = test system: Tomato late blight fungus (Phytophthora infestans); assay: whole plant or invertebrate; format: in vivo; conditions: foliar, 96 h, read-out: control value
[2] = test system: wheat leaf rust fungus (Puccinia recondita); assay: Wheat leaf rust control test (foliar spray on wheat seedlings); format: in vivo; conditions: 240 h, 125 ppm active ingredient, sprayed on wheat seedlings (variety Norin 61) before inoculation, 10 days, vs untreated
[3] = test system: cucumber gray mold fungus (Botrytis cinerea); assay: Cucumber gray mold control test (foliar spray on cucumber seedlings); conditions: in Cucumis sativus, 96 h, read-out: control value
[4] = test system: Apple scab fungus (Venturia inaequalis); assay: Apple scab control test (foliar spray on apple seedlings); format: in vivo; conditions: 125 ppm active ingredient, sprayed on apple seedlings (variety Orin) before inoculation, vs untreated
Method: The dilution was sprayed to apple seedlings (variety “Orin”, 3 to 4 leaf stage) grown in clay pots. […] The control value was calculated by the following equation. [formula]

SMILES | pest or weed control at 125 ppm [1] [%] | pest or weed control at 125 ppm [2] [%] | pest or weed control at 125 ppm [3] [%] | pest or weed control at 125 ppm [4] [%]
N=C(N)NCCCCCCCCNC(=N)NCCCCCOc1ccc(C2=NCCCN2)cc1 [compound 248] | ≥ 75 | ≥ 75 | ≥ 75 | –
N=C(N)NCCCCCCCNC(=N)NCCCCOc1ccc(C2=NCCN2)cc1 [compound 244] | – | ≥ 75 | ≥ 75 | ≥ 75
N=C(N)NCCCCCCCCNC(=N)NCCOc1ccc2cc(C3=NCCCN3)ccc2c1 [compound 292] | ≥ 75 | ≥ 75 | – | ≥ 75
N=C(N)NCCCCCCCNC(=N)NCCOc1ccc(C(=N)N)cc1 [compound 236] | – | ≥ 75 | ≥ 75 | ≥ 75
N=C(N)NCCCCCCCCNC(=N)NCC1=CC2C=C(C3=NCCCN3)C=CC2O1 (stereo not drawn) [compound 268] | ≥ 75 | ≥ 75 | ≥ 75 | –
CC1(C)CN=C(c2ccc(OCCCCNC(=N)NCCCCCCCCNC(=N)N)cc2)NC1 [compound 258] | ≥ 75 | ≥ 75 | ≥ 75 | –
N=C(N)NCCCCCCCCNC(=N)NCCCc1cc2cc(C3=NCCCN3)ccc2o1 [compound 260] | ≥ 75 | ≥ 75 | ≥ 75 | –
N=C(N)NCCCCCCCCCNC(=N)NCCCOc1ccc(C2=NCCCN2)cc1 [compound 218] | ≥ 75 | ≥ 75 | ≥ 75 | –
N=C(N)NCCCCCCCCNC(=N)NCCCCOc1ccc(C2=NCCCN2)cc1 [compound 204] | ≥ 75 | ≥ 75 | ≥ 75 | –
N=C(N)NCCCCCCCNC(=N)NCCOCc1ccc(C2=NCCCN2)cc1 [compound 238] | – | ≥ 75 | ≥ 75 | ≥ 75
N=C(N)NCCCCCCCCNC(=N)NCCCc1ccc(C2=NCCCN2)cc1 [compound 252] | ≥ 75 | ≥ 75 | ≥ 75 | –
N=C(N)NCCCCCCCCn1ccn(CCCCOc2ccc(C3=NCCCN3)cc2)c1=N [compound 210] | ≥ 75 | – | ≥ 75 | ≥ 75
N=C(N)NCCCCCCCNC(=N)NCCCOc1ccc(C(=N)N)nn1 [compound 44, 6-(3-(3-(7-guanidinoheptyl)guanidino)propoxy) pyridazine-3-carboxamidine] | ≥ 75 | – | ≥ 75 | ≥ 75
N=C(N)NCCCCCCCCCn1ccn(CCCCOc2ccc(C3=NCCCN3)cc2)c1=N [compound 212] | ≥ 75 | – | ≥ 75 | ≥ 75
CN(CCCOc1ccc(C(=N)N)cc1)C(=N)NCCCOc1ccc(C(=N)N)cc1 [compound 72] | – | ≥ 75 | ≥ 75 | ≥ 75
N=C(N)NCCCCCCCNC(=N)NCCCC#Cc1nc(C(=N)N)cs1 [compound 50, 2-[5-[[N-(7-guanidinoheptyl)carbamimidoyl]amino]pent-1-ynyl]thiazole-4-carboxamidine] | – | ≥ 75 | ≥ 75 | ≥ 75
N=C(NCCCCOc1ccc(C(=N)N)cc1)NCCCc1cc2cc(C(=N)N)ccc2o1 [compound 196] | ≥ 75 | – | ≥ 75 | ≥ 75

SMILES | pest or weed control at 125 ppm [1] [%] | pest or weed control at 125 ppm [2] [%] | pest or weed control at 125 ppm [3] [%] | pest or weed control at 125 ppm [4] [%]
N=C(N)NCCCCCCCCNC(=N)NCc1ccc(C2=NCCCN2)cc1 [compound 262] | – | ≥ 75 | ≥ 75 | ≥ 75
N=C(N)NCCCCCCCCNC(=N)NCCOc1ccc(C(=N)N)cc1 [compound 286] | – | ≥ 75 | ≥ 75 | –
N=C(N)c1ccc(OCCCCn2ccn(CCCCOc3ccc(C4=NCCCN4)cc3)c2=N)cc1 [compound 214] | ≥ 75 | – | ≥ 75 | ≥ 75
N=C(N)c1ccc(OCCCN2CCN(CCCOc3ccc(C(=N)N)cc3)C2=N)cc1 [compound 2, 4-[3-[3-[3-(4-carbamimidoylphenoxy)propyl]-2-imino-imidazolidin-1-yl]propoxy]benzamidine] | ≥ 75 | – | ≥ 75 | ≥ 75
N=C(N)NCCCCCCCNC(=N)NCCCCOc1ccc(C(=N)N)cc1 [compound 30, 4-[4-[[N-(7-guanidinoheptyl)carbamimidoyl]amino]butoxy]benzamidine] | ≥ 75 | – | ≥ 75 | ≥ 75
N=C(N)NCCCCCNC(=N)NCCCOc1ccc(C(=N)N)cc1 [compound 132] | ≥ 75 | – | ≥ 75 | ≥ 75
N=C(N)NCCCCCCCNC(=N)NCCCOc1ccc(C2=NCCCN2)cc1 [compound 190] | ≥ 75 | – | ≥ 75 | ≥ 75
CNC(=N)c1ccc(OCCCn2ccn(CCCOc3ccc(C(=N)NC)cc3)c2=N)cc1 [compound 116] | ≥ 75 | – | ≥ 75 | ≥ 75
N=C(N)NCCCCCCCNC(=N)NCCCCOc1ccc(C(=N)N)cc1 [compound 16, 4-[4-[[N-(7-guanidinoheptyl)carbamimidoyl]amino]butoxy]benzamidine] | – | ≥ 75 | – | –
N=C(N)NCCCCCCCCn1ccn(CCCCOc2ccc(C(=N)N)cc2)c1=N [compound 216] | ≥ 75 | ≥ 75 | ≥ 75 | –
N=C(N)c1ccc(OCCCCCn2ccn(CCCCCOc3ccc(C(=N)N)cc3)c2=N)cc1 [compound 88] | ≥ 75 | – | ≥ 75 | ≥ 75
N=c1n(CCCOc2ccc(C3=NCCCN3)cc2)ccn1CCCOc1ccc(C2=NCCCN2)cc1 [compound 76] | ≥ 75 | – | ≥ 75 | ≥ 75
N=C(N)NCCCCCNC(=N)NCCCCOc1ccc(C(=N)N)cc1 [compound 59] | – | ≥ 75 | ≥ 75 | ≥ 75
N=C(N)NCCCCCCCNC(=N)NCCOCc1cc(C(=N)N)cs1 [compound 48, 5-[2-[[N-(7-guanidinoheptyl)carbamimidoyl]amino]ethoxymethyl]thiophene-3-carboxamidine] | – | ≥ 75 | ≥ 75 | ≥ 75
N=C(N)c1ccc(OCCCCn2ccn(CCCCOc3ccc(C(=N)N)cc3)c2=N)cc1 [compound 36, 4-[4-[3-[4-(4-carbamimidoylphenoxy)butyl]-2-imino-imidazol-1-yl]butoxy]benzamidine] | ≥ 75 | – | ≥ 75 | ≥ 75
N=C(N)NCCCCCCCCn1ccn(CCOc2ccc(C(=N)N)cc2)c1=N [compound 281] | ≥ 75 | ≥ 75 | ≥ 75 | –
